The results in this text go back to ChEMBL document CHEMBL1201862, “PubChem BioAssay data set” (2004).

Test systems include M14; SNB-19; Hs-578T; SW-620; SF-295; SNB-75; HCT-15; PC-3; A498; OVCAR-8; ACHN; K562; CAKI-1; MDA-MB-231; UACC-62; BT-549; HCC 2998; NCI-H522; SR.
Common to all, as to assay: inhibition of tumour cell growth, NCI panel, 48 h

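Cells were grown in 96-well plates and exposed to each compound for 48 hours at five concentrations; endpoints were interpolated linearly between bracketing concentrations, or set to the highest concentration if not reached. GI50: concentration for 50% inhibition of growth.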 The source made the active and inactive calls. Rule as the data show it: active = GI50 up to about 1.1 µM and inactive = higher.

For `CC1(C)SC2C(NC(=O)C(C(=O)O)c3ccccc3)C(=O)N2C1C(=O)O` (stereo unspecified), the GI50 in the test with M14 was > 100 µM (inactive); in the test with SNB-19 it was > 100 µM (inactive); in the test with Hs-578T, > 100 µM (inactive); in the test with SW-620 it was > 100 µM (inactive); in the test with SF-295, > 100 µM (inactive); in the test with SNB-75, 92 µM (inactive). The GI50 was > 100 µM in the test with HCT-15; > 100 µM (inactive) in the test with PC-3; > 100 µM (inactive) with A498; > 100 µM (inactive) in the test on OVCAR-8; > 100 µM (inactive) in the test with ACHN; > 100 µM (inactive) in the test on K562. The GI50 with CAKI-1, in the test with MDA-MB-231, in the test with UACC-62 and in the test on BT-549 was > 100 µM (inactive) each time.

`CC1(C)CN=C(Nc2ccc(F)cc2)S1`: the GI50 with M14, in the test with SNB-19, in the test on Hs-578T, with SW-620, with SF-295 and in the test with SNB-75 was > 100 µM (inactive) in each case. The GI50 is > 100 µM in the test with HCT-15; > 100 µM (inactive) in the test with PC-3; > 100 µM (inactive) in the test with OVCAR-8; > 100 µM (inactive) with ACHN; > 100 µM (inactive) with K562; > 100 µM (inactive) in the test with HCC 2998. Also, the GI50 in the test with NCI-H522, with CAKI-1, in the test on SR, with UACC-62 and with BT-549 was > 100 µM (inactive) in each case.

On to `O=[N+]([O-])c1cccc2nc3ccccc3c(NCCCCNc3c4ccccc4nc4cccc([N+](=O)[O-])c34)c12`, for which the GI50 in the test with M14 was 0.0389 µM (active); with SNB-19, 0.0302 µM (active); with Hs-578T it was 0.191 µM (active); in the test on SW-620, < 0.0122 µM (active); in the test on SF-295, 0.0927 µM (active); in the test with SNB-75, 0.0859 µM (active). Besides, the GI50 is 0.0204 µM in the test with HCT-15; 0.0719 µM (active) with PC-3; < 0.01 µM (active) in the test with OVCAR-8; 0.017 µM (active) in the test on ACHN; < 0.0216 µM (active) in the test with K562; 0.0254 µM (active) in the test on HCC 2998. Also, the GI50 is 0.0214 µM (active) in the test with NCI-H522; 0.0261 µM (active) in the test on CAKI-1; 0.0178 µM (active) in the test with MDA-MB-231; 0.134 µM (active) in the test with UACC-62; 0.242 µM (active) with BT-549.

Turning to `N#CC12COC3(CCCCC3C1(C#N)C#N)OC2=N` (stereo unspecified), the GI50 was 10.6 µM (inactive) in the test on M14; 17.8 µM (inactive) with SNB-19; 17.1 µM (inactive) in the test with Hs-578T; 10.3 µM (inactive) in the test on SW-620; 19.5 µM (inactive) in the test on SF-295; 14 µM (inactive) in the test on SNB-75. Moreover, the GI50 was 13.8 µM (inactive) in the test on PC-3; 18.2 µM (inactive) in the test with A498; > 10 µM (inactive) in the test on OVCAR-8; 15.1 µM (inactive) in the test with ACHN; 10.6 µM (inactive) in the test with K562; 3.59 µM (inactive) in the test with CAKI-1. The GI50 in the test on MDA-MB-231 was 15.2 µM (inactive); with UACC-62, 14.7 µM (inactive); with BT-549, 15.4 µM (inactive).

With `CC(=O)C1=C(C)N2C(=NC3=C(CCc4ccccc43)C2c2cccc(Br)c2)S1` (stereo unspecified), the GI50 in the test on M14 is > 100 µM (inactive); in the test on SNB-19 it was > 100 µM (inactive); in the test with Hs-578T it was 67.1 µM (inactive); with SW-620 it was > 100 µM (inactive); in the test with SF-295 it was > 100 µM (inactive); with SNB-75, > 100 µM (inactive). The GI50 was 74.8 µM in the test on HCT-15; > 100 µM (inactive) with PC-3; > 100 µM (inactive) with A498; > 100 µM (inactive) in the test on OVCAR-8; > 100 µM (inactive) in the test with ACHN; 72.9 µM (inactive) with HCC 2998. For the same compound, the GI50 with MDA-MB-231 is > 100 µM (inactive); with UACC-62, 68.2 µM (inactive); in the test on BT-549, > 100 µM (inactive).

Consider `O=c1c2c3c(sc2nc2n1N=C(c1ccc(Br)cc1)CS2)CCCC3`, for which the GI50 in the test on M14 was > 100 µM (inactive); with SNB-19, > 100 µM (inactive); in the test with SW-620, > 100 µM (inactive); in the test on SF-295, > 100 µM (inactive); in the test with SNB-75, > 100 µM (inactive); in the test with HCT-15, > 100 µM. The GI50 in the test on PC-3, with A498, in the test on OVCAR-8, in the test with ACHN, in the test on K562 and in the test with HCC 2998 was > 100 µM (inactive) in each case. Besides, the GI50 in the test with NCI-H522, in the test with CAKI-1, with SR, in the test on MDA-MB-231, with UACC-62 and in the test on BT-549 was > 100 µM (inactive) each time.

Take `CC1NC(/C(=C/c2ccccc2O)NC(=O)c2ccccc2)OC1=O` (stereo unspecified): the GI50 was > 50 µM (inactive) in the test on M14; > 50 µM (inactive) in the test with SNB-19; > 50 µM (inactive) in the test on SW-620; > 50 µM (inactive) in the test on SF-295; 13.9 µM (inactive) in the test on SNB-75; 34.1 µM in the test on HCT-15. Besides, the GI50 in the test with PC-3 was 30.7 µM (inactive); in the test with A498 it was > 50 µM (inactive); in the test on OVCAR-8, > 50 µM (inactive); in the test on ACHN it was 22.4 µM (inactive); in the test on K562, > 50 µM (inactive); with HCC 2998, > 50 µM (inactive). For the same compound, the GI50 in the test with NCI-H522 was 24.2 µM (inactive); in the test on CAKI-1, > 50 µM (inactive); in the test on SR, 2.52 µM (inactive); in the test with MDA-MB-231, > 50 µM (inactive); in the test with UACC-62 it was > 50 µM (inactive); with BT-549 it was > 50 µM (inactive).

As to `O=C1Nc2ccccc2/C1=C1/Nc2ccccc2/C1=N/OCCO`, the GI50 in the test with M14 was 2.39 µM (inactive); in the test on SNB-19, > 100 µM (inactive); in the test with Hs-578T, 6.14 µM (inactive); in the test on SW-620, 14 µM (inactive); with SF-295, 17.3 µM (inactive); in the test on SNB-75 it was > 100 µM (inactive). Further, the GI50 in the test on HCT-15 was 0.433 µM; in the test with PC-3, 15.1 µM (inactive); in the test on A498 it was 0.213 µM (active); with OVCAR-8 it was > 100 µM (inactive); with ACHN, 0.352 µM (active); in the test on K562 it was > 100 µM (inactive). Moreover, the GI50 in the test with HCC 2998 was 24.8 µM (inactive); with NCI-H522 it was > 100 µM (inactive); in the test with CAKI-1, 0.175 µM (active); in the test on SR, 0.546 µM (active); in the test with UACC-62, 10.5 µM (inactive); with BT-549 it was 50.9 µM (inactive).

With `C=C(C)CC1=C(OCC)C(OC)(OCC)C1=O` (stereo unspecified), the GI50 in the test with M14, with SNB-19, with Hs-578T, in the test on SW-620, in the test with SF-295 and in the test with SNB-75 was > 100 µM (inactive) in each case. Further, the GI50 in the test with HCT-15 is > 100 µM; in the test with PC-3 it was > 100 µM (inactive); in the test on A498, > 100 µM (inactive); with OVCAR-8 it was > 100 µM (inactive); in the test with ACHN it was > 100 µM (inactive); in the test on NCI-H522 it was 47.8 µM (inactive). Besides, the GI50 with CAKI-1 is > 100 µM (inactive); with MDA-MB-231, > 100 µM (inactive); in the test with UACC-62, > 100 µM (inactive); in the test with BT-549 it was 40.3 µM (inactive).

Turning to `C=CCCC(=O)N1CCC(C(=O)OCC)C1=O` (stereo unspecified), the GI50 in the test on M14, in the test with SNB-19, in the test with Hs-578T, with SW-620, in the test on SF-295 and in the test with SNB-75 was > 100 µM (inactive) in each case. The GI50 in the test with HCT-15 is > 100 µM; in the test on PC-3, > 100 µM (inactive); in the test on A498, > 100 µM (inactive); with OVCAR-8 it was > 100 µM (inactive); in the test on ACHN it was > 100 µM (inactive); with NCI-H522, > 100 µM (inactive). Besides, the GI50 in the test with CAKI-1, with MDA-MB-231, in the test on UACC-62 and in the test on BT-549 was > 100 µM (inactive) in each case.

On to `COc1cc(/C=N/NC(=O)c2c(Cl)c(Cl)c(Cl)c(Cl)c2-c2nc3ccccc3[nH]2)ccc1O`, for which the GI50 in the test on M14 is 24.7 µM (inactive); with SNB-19 it was 30.5 µM (inactive); in the test with Hs-578T, 44 µM (inactive); with SW-620, 34.4 µM (inactive); with SF-295, 24.1 µM (inactive); in the test on SNB-75 it was 22.9 µM (inactive). Also, the GI50 with HCT-15 was 22 µM; in the test on PC-3, 29.4 µM (inactive); with A498, 27.5 µM (inactive); with OVCAR-8, 31.1 µM (inactive); with ACHN, 21.4 µM (inactive); with K562, 20.4 µM (inactive). Further, the GI50 in the test with HCC 2998 was 17.2 µM (inactive); with NCI-H522, 30.6 µM (inactive); in the test on CAKI-1 it was 25.3 µM (inactive); with UACC-62, 15.8 µM (inactive); with BT-549, 21.1 µM (inactive).

In the case of `CN(C)c1nc(N(C)C)nc(N(C)C23CC4CC(CC(C4)C2)C3)n1`, the GI50 was 33.3 µM (inactive) in the test on M14; 31.7 µM (inactive) with SNB-19; 34.4 µM (inactive) in the test on SW-620; 18.4 µM (inactive) in the test with SF-295; 24.3 µM (inactive) in the test with SNB-75; > 100 µM with HCT-15. The GI50 is 24.5 µM (inactive) in the test with PC-3; > 100 µM (inactive) with A498; 32.1 µM (inactive) in the test with OVCAR-8; 41.3 µM (inactive) with ACHN; 49.3 µM (inactive) in the test with K562; 39.6 µM (inactive) in the test on HCC 2998. In addition, the GI50 in the test with NCI-H522 is 16.9 µM (inactive); in the test with CAKI-1, > 100 µM (inactive); in the test with SR, 39.1 µM (inactive); in the test with MDA-MB-231 it was 23.8 µM (inactive); with UACC-62, 56.8 µM (inactive); in the test on BT-549, 27.7 µM (inactive).
